Values of other authors in PMC2747598 (Journal of the American Chemical Society, 2009).

Test system: HeLa cells
Details: unconjugated complexes

Molecule | Mode of cellular uptake
[Ru+2].c1ccc(-c2ccccn2)nc1.c1ccc(-c2ccccn2)nc1.c1ccc2nc3c4cccnc4c4ncccc4c3nc2c1 [Ru(bpy)2dppz^2+] | enter by passive diffusion and do not exhibit punctate staining
Ru(phen)2dppz^2+ | enter by passive diffusion and do not exhibit punctate staining
Ru(phen)(bpy′)(dppz)^2+ | enter by passive diffusion and do not exhibit punctate staining
